Patent publication US9439906B2, “Dosing regimen associated with long acting injectable paliperidone esters” (Janssen Pharmaceutica NV, priority 2007, dated 2016)

Tests used:
Type in all cases: in vivo, human
[1] = Comparison of single-dose PK profile in the deltoid to that in the gluteal (summary of phase 1 studies)
Experimental: The plasma concentration-time profile of paliperidone after single i.m. injection of the paliperidone palmitate formulation at 25-150 mg-eq. has been documented in several studies (Table 4). Details of how the comparison of injection sites study and the dose proportionality studies were performed are provided in Examples 2 and 3.

[2] = Pharmacokinetic profile of gluteal versus deltoid i.m. injections of paliperidone palmitate 100 mg-eq. (four injections)
Experimental: This study was performed to characterize and compare the pharmacokinetic profile of paliperidone palmitate (formulated as described above) following four intramuscular injections in the deltoid or gluteal muscle.
Plasma samples for pharmacokinetic analyses were collected.

[3] = Pharmacokinetics in phase 3 study R092670-PSY-3007; conditions: Day 8, 3 dose groups
Experimental: Subjects without source documentation of previous exposure to at least 2 doses of oral risperidone or paliperidone extended-release (ER), at least 1 dose of i.m. RISPERDAL® CONSTA® or paliperidone palmitate, or who were not currently receiving an antipsychotic medication were given 4 to 6 days of paliperidone ER 6 mg/day (or the option of oral risperidone 3 mg/day for subjects in Malaysia) for tolerability testing. Subjects who had source documentation of previous exposure to the above medications and were currently taking another antipsychotic regimen continued their current treatment through Day-1. At the beginning of the double-blind treatment period, subjects were randomly assigned in a 1:1:1:1 ratio to 1 of 4 treatment groups: placebo or paliperidone palmitate 25 mg eq., 100 mg eq., or 150 mg eq. Study medication was administered as 4 doses: an initial i.m. injection of 150 mg eq. of paliperidone palmitate or placebo followed by 3 fixed i.m. doses of placebo or paliperidone palmitate [25, 100, or 150 mg eq.] on Days 8, 36, and 64. The initial injection of study medication was given in the deltoid muscle. Subsequent injections were given either in the deltoid or gluteal muscle at the discretion of the investigator. […] Efficacy and safety were evaluated regularly throughout the study. […]

[4] = Safety in phase 3 placebo-controlled study R092670-PSY-3007; conditions: for average increase in body weight: placebo −0.2 kg; for Akathisia (EPS-related adverse event): placebo 4.9%; for mean change in BMI from baseline to end point: placebo −0.1
Experimental: Safety was monitored by the evaluation of adverse events, extrapyramidal symptom (EPS) rating scales (Abnormal Involuntary Movement Scale [AIMS], Barnes Akathisia Rating Scale [BARS], Simpson and Angus Rating Scale [SAS]) scores, clinical laboratory test results, vital signs measurements, electrocardiograms (ECGs), and physical examination findings. In addition, the tolerability of injections was assessed; the investigators evaluated injection sites and the subjects assessed injection pain.
The number and percentage of subjects with treatment-emergent adverse events were summarized. Adverse events of potential clinical interest were summarized separately, including events related to EPS or changes in serum glucose or prolactin levels.
Changes from baseline in clinical laboratory tests, vital sign measurements, ECGs, body weight, BMI, and EPS scale scores were summarized by treatment group. Prolactin levels were summarized by sex. Subjects with potentially abnormal values or changes in clinical laboratory tests, vital signs, orthostatic parameters, and ECG parameters were summarized based on predefined criteria. Frequency distributions were presented for the investigator's evaluation of the injection site, and descriptive statistics were presented for VAS scores corresponding to the subject's evaluation of injection pain.

With CCCCCCCCCCCCCCCC(=O)OC1CCCn2c1nc(C)c(CCN1CCC(c3noc4cc(F)ccc34)CC1)c2=O (racemic) [paliperidone palmitate, (±)-3-[2-[4-(6-fluoro-1,2-benzisoxazol-3-yl)-1-piperidinyl]ethyl]-6,7,8,9-tetrahydro-2-methyl-4-oxo-4H-pyrido[1,2-α]pyrimidin-9-yl hexadecanoate] as the molecule, how does the “increase in Cmax versus dose” value ([1]; both injection sites, doses greater than 50 mg eq.) read?
The value was “slightly less than dose proportional”.

And the “median apparent half-life between injection sites” value ([1]; single dose, deltoid vs gluteal)?
The value was “comparable”.

What about the “total exposure (AUC∞) of paliperidone versus dose” value ([1]; single-dose 25 to 150 mg eq., deltoid and gluteal) of the same molecule?
The value was “increased proportionally with dose”.

And the “median AUC∞, deltoid versus gluteal” value ([2]; after four injections)?
Its value is “similar”.

And the “Relative exposure after the fourth injection versus after the second injection” value ([2]; both deltoid and gluteal)?
Its value is “slightly lower”.

What about the “median paliperidone plasma concentrations in high BMI compared to low BMI (<25 kg/m^2) subjects” value [3] of the same molecule?
The value was “lower”.

And the “1 or more serious TEAE, (%)” value ([4]; 25 mg eq. group (N = 160))?
The value was “(9.4) %”.

What about the “Possibly related TEAE, (%)” value ([4]; 25 mg eq. group (N = 160)) of the same molecule?
The value was “(28.1) %”.

And the “TEAE leading to permanent stop, (%)” value ([4]; 25 mg eq. group (N = 160))?
The value was “(6.3) %”.

And the “TEAE, (%)” value ([4]; 25 mg eq. group (N = 160))?
Its value is “(63.1) %”.

And the “average increase in body weight” value ([4]; 25 mg eq. group, 13 weeks)?
The value was 0.4 kg.

What about the “Akathisia (EPS-related adverse event)” value ([4]; 25 mg eq. group) of the same molecule?
The value was 1.3%.

What about the “mean change in BMI from baseline to end point” value (“mean change in BMI” for short) ([4]; 25 mg eq. group) of the same molecule?
Its value is 0.1 kg/m^2.

What about the “1 or more serious TEAE, (%)” value ([4]; 100 mg eq. group (N = 165)) of the same molecule?
Its value is “(13.3) %”.

And the “Possibly related TEAE, (%)” value ([4]; 100 mg eq. group (N = 165))?
The value was “(29.7) %”.

And the “TEAE leading to permanent stop, (%)” value ([4]; 100 mg eq. group (N = 165))?
The value was “(6.1) %”.

What about the “TEAE, (%)” value ([4]; 100 mg eq. group (N = 165)) of the same molecule?
Its value is “(60.0) %”.

And the “average increase in body weight” value ([4]; 100 mg eq. group, 13 weeks)?
The value was 0.7 kg.

And the “Akathisia (EPS-related adverse event)” value ([4]; 100 mg eq. group)?
Its value is 4.8%.

What about the “mean change in BMI” value ([4]; 100 mg eq. group) of the same molecule?
Its value is 0.3 kg/m^2.

And the tolerability ([4]; 150 mg eq. deltoid then 25, 100 or 150 mg eq. Days 8, 36, 64, 13 weeks)?
The tolerability was “generally well tolerated”.

And the “1 or more serious TEAE, (%)” value ([4]; 150 mg eq. group (N = 163))?
Its value is 8.0%.

And the “Possibly related TEAE, (%)” value ([4]; 150 mg eq. group (N = 163))?
The value was 31.3%.

What about the “TEAE leading to death, (%)” value ([4]; 150 mg eq. group (N = 163)) of the same molecule?
Its value is 0.6%.

And the “TEAE leading to permanent stop, (%)” value ([4]; 150 mg eq. group (N = 163))?
Its value is 8.0%.

What about the “TEAE, (%)” value ([4]; 150 mg eq. group (N = 163)) of the same molecule?
The value was 63.2%.

What about the “average increase in body weight” value ([4]; 150 mg eq. group, 13 weeks) of the same molecule?
The value was 1.4 kg.

What about the “Akathisia (EPS-related adverse event)” value ([4]; 150 mg eq. group) of the same molecule?
The value was 5.5%.

And the “mean change in BMI” value ([4]; 150 mg eq. group)?
The value was 0.5 kg/m^2.

And the “Local injection site tolerability” value ([4]; all dose groups)?
Its value is “good”.

What about the “incidence of treatment-emergent EPS-related adverse events” value ([4]; all dose groups) of the same molecule?
The value was “low and comparable to placebo”.

And the “ECG: clinically significant QTc prolongation” value ([4]; doses up to 150 mg eq.)?
Its value is “did not demonstrate evidence of clinically significant QTc prolongation”.

What about the “subjects with maximum QTcLD value >480 ms or maximal change in QTcLD >60 ms” value ([4]; during the study) of the same molecule?
Its value is “No subject”.

What about the “subjects with weight increase of at least 7% relative to baseline” value ([4]; highest dose (150 mg eq.), placebo 5%) of the same molecule?
The value was 13%.

And the prolactin levels ([4]; versus placebo, largest increase in the 150 mg eq. group)?
The prolactin levels was “increases in prolactin levels were observed with greater frequency”.
